Assay results as given in US20060275238A1, “Topical cosmetic formulations for regulating and improving the moisture content of the skin” (Goldschmidt GmbH, priority 2005, published 2006).

Experiments:
[1] = In vitro sorption-desorption properties of moisturizers (weight increase vs relative atmospheric humidity); assay type: physicochemical; details: 24 h each; for ability to absorb water as the atmospheric humidity increases: 20% to 80% r.h. in 10% stages; for ability to store/hold the absorbed water as the atmospheric humidity decreases (hysteresis behavior): 80% r.h. reduced in 10% stages
Method: In order to determine the in vitro sorption-desorption properties of moisturizers, these were firstly dried overnight at 80° C. and 0% relative humidity (r.h.) and then cooled to room temperature in a desiccator. 4-5 g of the moisturizer substance were then placed into a Petri dish and stored for 24 h at 20% rh. The weight increase was recorded and the atmospheric humidity was then increased by 10%. After 24 h, the weight of the moisturizer was monitored again. This was repeated in stages to an atmospheric humidity of 80%. The atmospheric humidity was then reduced again every 24 h in 10% stages and the weight decrease was recorded.

[2] = tested on: skin; assay: Corneometry, skin moisture before and after single application of test formulation; assay type: in vivo, subjects; details: single application in O/W cream, contact time two hours; concentration as in 10% active ingredient combination 1
Method: Corneometry is a noninvasive method which permits conclusions relating to the skin moisture on the basis of changes in the physical parameters within the stratum corneum. In practice, 12 to 15 subjects are recruited whose skin moisture is measured before and after single application of the test formulations using a HM99 corneometer (Courage & Khazaka, Cologne, Germany) according to the manufacturer's instructions.
After climatization of the subjects over 15 minutes under defined conditions of 22° C. and 55% relative humidity, the skin hydration is determined corneometrically and afterwards 50 mg of the test formulation are applied to a skin area each with a diameter of 2.5 cm, and after […] any residues of the formulation are removed.
After a contact time of two hours, the skin hydration is measured again following climatization of 15 minutes (22° C., 55% rel. humidity). An increase of the relative corneometer units CU correlates directly with improved skin hydration.
The concentrations of the individual substances were chosen so that they correspond to the concentration in 10% active ingredient combination 1.

OCC(O)CO [glycerol, 1,2,3-propanetriol, reference compound]
ability to absorb water as the atmospheric humidity increases [1]: absorb the largest possible amounts of water
ability to store/hold the absorbed water as the atmospheric humidity decreases (hysteresis behavior) [1]: not able to do

CC(O)C(=O)[O-].[K+] (stereo not drawn) [potassium lactate, Potassium lactate]
ΔCU, increase in the relative corneometer units compared with the blank formulation [2]: 1.6 CU

C[N+](C)(C)CC(=O)[O-] [trimethylglycine, Trimethylglycine]
ability to absorb water as the atmospheric humidity increases [1]: very good ability to absorb water
ability to store/hold the absorbed water as the atmospheric humidity decreases (hysteresis behavior) [1]: able to hold onto the absorbed water
ΔCU, increase in the relative corneometer units compared with the blank formulation [2]: 3.2 CU

NC(N)=O [urea, Urea]
ability to absorb water as the atmospheric humidity increases [1]: very good ability to absorb water
ability to store/hold the absorbed water as the atmospheric humidity decreases (hysteresis behavior) [1]: able to hold onto the absorbed water
ΔCU, increase in the relative corneometer units compared with the blank formulation [2]: 3.6 CU
